Assay results taken from publication PMC6197744, “Triazolo[4,5-d]pyrimidines as Validated General Control Nonderepressible 2 (GCN2) Protein Kinase Inhibitors Reduce Growth of Leukemia Cells” (Computational and Structural Biotechnology Journal, 2018).

Molecular target: standard panel of 50 protein kinases
Assay: Broad kinase panel screen, whole panel
Assay type: binding
Details: 0.5 μM
Description: Compounds 1–9 were screened in a radiometric […] kinase assay against human GCN2 and other kinases involved in the UPR and ISR pathways (Table 1). […] The most soluble of the potent tool compounds (1 and 2) were selected for in vitro cell-based assays where the phosphorylation of eIF2α (p-eIF2α) was used as a readout for GCN2 inhibition.
Compound 2 was screened against a standard panel of 50 protein kinases by Luceome Biotechnologies (Tucson, AZ). In brief, Compound 2 was dissolved and diluted in DMSO to a concentration of 12.5 μM from a 10 mM stock solution. As a control, compound 2 was evaluated for false positive against split-luciferase. For kinase assays, each C-terminal half of firefly luciferase linked kinase (Cfluc-Kinase) was translated along with the coiled coil Fos attached to the N-terminal fragment (Nfluc) (Fos-Nfluc) using rabbit reticulocyte lysate at 30 °C for 90 min. 24 µL aliquot of this lysate containing 1 µL of either DMSO or Compound 2 (at a final concentration 0.5 μM) was incubated for 30 minutes at room temperature followed by 1 hour incubation in the presence of a kinase specific probe. Finally, 80 µL of luciferin assay reagent was added and luminescence was immediately measured on a luminometer. Compound 2 was screened in duplicate against each kinase.
The % Inhibition and % Activity Remaining was calculated using the following equations: […]

SMILES: CCOc1ccc(-n2nnc3cnc(Nc4cnn(CC)c4)nc32)cc1 [Compound 2, 3-(4-Ethoxyphenyl)-N-(1-ethyl-1H-pyrazol-4-yl)-3H-[1,2,3]triazolo[4,5-d]pyrimidin-5-amine]
- kinase inhibition in standard broad kinase panel (in words): no significant kinase inhibition
